In PMC7083837 (Nature Communications, 2020):
Where “and” joins values, the source holds several entries; their conditions need not be identical. Equal values may be shown once.

Legend:
Experiment in all cases: [3H]IMI dissociation rate assay
Type in all cases: binding
[1] = biological target: T1, SERT A486E (Homo sapiens, UniProt P31645, A486E)
T1 construct: expressed in transfected cells; host or cells: COS-7
Description: (§1) All mutations were confirmed by DNA sequencing. The used primers were
(§2) The allosteric potency was calculated as previously described.

[2] = biological target: T2, SERT A486E-K490A (Homo sapiens, UniProt P31645, A486E/K490A)
T2 construct: expressed in transfected cells; host or cells: COS-7
Description: as §1, §2

[3] = biological target: T3, SERT F556R (Homo sapiens, UniProt P31645, F556R)
T3 construct: expressed in transfected cells; host or cells: COS-7
Description: as §1, §2

[4] = biological target: T4, SERT L406E (Homo sapiens, UniProt P31645, L406E)
T4 construct: expressed in transfected cells; host or cells: COS-7
Description: as §1, §2

[5] = biological target: T5, SERT R104K (Homo sapiens, UniProt P31645, R104K)
T5 construct: expressed in transfected cells; host or cells: COS-7
Description: as §1, §2

T5 sequence (P31645 whole entry R104K): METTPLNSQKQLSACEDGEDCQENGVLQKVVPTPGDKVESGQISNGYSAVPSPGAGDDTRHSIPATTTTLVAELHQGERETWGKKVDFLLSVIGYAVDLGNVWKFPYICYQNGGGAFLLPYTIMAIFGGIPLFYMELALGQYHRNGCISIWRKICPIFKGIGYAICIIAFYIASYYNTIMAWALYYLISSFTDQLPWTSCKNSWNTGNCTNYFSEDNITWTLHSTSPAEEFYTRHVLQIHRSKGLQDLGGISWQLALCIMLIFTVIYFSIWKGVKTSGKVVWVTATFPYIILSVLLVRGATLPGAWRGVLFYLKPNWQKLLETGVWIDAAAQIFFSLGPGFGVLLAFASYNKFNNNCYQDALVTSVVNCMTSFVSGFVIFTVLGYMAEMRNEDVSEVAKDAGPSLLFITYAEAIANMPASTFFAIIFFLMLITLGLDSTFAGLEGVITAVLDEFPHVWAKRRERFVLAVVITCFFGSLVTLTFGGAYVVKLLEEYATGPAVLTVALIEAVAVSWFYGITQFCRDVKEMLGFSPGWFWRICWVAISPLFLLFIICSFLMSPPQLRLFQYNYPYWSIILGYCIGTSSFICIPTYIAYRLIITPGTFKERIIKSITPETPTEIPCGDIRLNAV
T4 sequence (P31645 whole entry L406E): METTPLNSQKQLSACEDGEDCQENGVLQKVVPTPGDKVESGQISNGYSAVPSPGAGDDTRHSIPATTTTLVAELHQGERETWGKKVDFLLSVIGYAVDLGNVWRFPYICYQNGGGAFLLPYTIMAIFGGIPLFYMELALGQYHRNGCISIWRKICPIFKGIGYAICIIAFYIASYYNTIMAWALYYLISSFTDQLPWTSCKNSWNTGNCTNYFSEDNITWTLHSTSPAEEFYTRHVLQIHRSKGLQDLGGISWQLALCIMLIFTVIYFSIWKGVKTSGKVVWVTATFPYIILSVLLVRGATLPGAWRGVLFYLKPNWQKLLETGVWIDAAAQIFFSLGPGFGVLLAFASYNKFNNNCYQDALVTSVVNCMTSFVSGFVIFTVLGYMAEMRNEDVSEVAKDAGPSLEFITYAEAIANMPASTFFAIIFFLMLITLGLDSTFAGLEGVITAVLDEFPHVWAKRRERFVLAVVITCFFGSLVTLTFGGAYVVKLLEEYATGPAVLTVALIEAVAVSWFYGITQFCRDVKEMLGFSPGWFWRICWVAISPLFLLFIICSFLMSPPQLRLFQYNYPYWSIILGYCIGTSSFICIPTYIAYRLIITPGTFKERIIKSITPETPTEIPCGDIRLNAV
T2 sequence (P31645 whole entry A486E/K490A): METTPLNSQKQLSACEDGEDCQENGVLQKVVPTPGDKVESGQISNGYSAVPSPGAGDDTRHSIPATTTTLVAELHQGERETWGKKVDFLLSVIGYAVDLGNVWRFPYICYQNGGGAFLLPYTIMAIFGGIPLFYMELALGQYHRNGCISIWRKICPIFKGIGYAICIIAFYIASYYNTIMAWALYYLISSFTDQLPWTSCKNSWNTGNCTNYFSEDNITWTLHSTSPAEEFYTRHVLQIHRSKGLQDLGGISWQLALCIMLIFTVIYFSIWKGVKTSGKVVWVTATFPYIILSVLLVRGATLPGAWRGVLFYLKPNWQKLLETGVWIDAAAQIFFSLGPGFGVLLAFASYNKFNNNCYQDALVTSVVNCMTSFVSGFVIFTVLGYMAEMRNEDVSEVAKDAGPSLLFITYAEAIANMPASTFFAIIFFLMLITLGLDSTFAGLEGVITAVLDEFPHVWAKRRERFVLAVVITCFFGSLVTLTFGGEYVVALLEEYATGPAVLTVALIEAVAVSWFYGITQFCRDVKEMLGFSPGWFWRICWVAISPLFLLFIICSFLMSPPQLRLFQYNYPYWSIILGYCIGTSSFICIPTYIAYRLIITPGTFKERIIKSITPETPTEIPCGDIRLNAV
T3 sequence (P31645 whole entry F556R): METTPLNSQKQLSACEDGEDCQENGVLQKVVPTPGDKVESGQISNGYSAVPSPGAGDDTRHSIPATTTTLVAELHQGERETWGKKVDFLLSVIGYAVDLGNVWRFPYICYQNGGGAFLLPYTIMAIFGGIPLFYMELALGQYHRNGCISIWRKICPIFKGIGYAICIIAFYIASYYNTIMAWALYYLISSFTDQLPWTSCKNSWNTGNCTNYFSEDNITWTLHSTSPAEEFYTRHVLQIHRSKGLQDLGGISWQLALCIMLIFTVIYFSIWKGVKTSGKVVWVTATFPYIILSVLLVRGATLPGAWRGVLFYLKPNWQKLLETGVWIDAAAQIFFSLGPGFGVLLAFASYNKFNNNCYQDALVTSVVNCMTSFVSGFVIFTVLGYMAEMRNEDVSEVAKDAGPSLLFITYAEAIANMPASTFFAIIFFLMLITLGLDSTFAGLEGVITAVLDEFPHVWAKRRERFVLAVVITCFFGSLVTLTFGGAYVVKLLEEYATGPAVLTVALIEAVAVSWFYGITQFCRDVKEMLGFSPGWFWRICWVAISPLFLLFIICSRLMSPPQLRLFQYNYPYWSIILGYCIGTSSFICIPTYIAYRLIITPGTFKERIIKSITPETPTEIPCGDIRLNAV
T1 sequence (P31645 whole entry A486E): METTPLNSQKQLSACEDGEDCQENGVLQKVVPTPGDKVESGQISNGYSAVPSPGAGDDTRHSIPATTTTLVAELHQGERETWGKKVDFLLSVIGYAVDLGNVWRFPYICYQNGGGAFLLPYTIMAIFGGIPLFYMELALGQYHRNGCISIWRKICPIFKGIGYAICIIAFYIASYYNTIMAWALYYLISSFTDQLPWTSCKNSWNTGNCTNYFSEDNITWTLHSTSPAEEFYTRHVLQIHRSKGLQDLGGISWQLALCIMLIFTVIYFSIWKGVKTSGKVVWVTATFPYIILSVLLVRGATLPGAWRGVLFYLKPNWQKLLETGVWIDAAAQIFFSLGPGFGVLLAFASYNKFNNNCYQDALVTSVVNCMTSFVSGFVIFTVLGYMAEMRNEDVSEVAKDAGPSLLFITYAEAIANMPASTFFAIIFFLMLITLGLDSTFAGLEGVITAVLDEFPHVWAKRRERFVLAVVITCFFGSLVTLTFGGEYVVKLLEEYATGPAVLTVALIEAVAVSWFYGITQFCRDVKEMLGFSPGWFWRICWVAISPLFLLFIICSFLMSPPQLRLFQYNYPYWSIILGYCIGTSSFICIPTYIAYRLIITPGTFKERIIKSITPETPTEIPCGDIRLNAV

ΔAP (mut/WT), change in allosteric potency relative to SERT WT ([1]; A486E, [^3H]IMI dissociation): 15
IC50 ([1]; SERT A486E (TM10), read-out: Lu AF60097 allosteric potency ([^3H]IMI dissociation IC50)): 470 nM
ΔAP (mut/WT), change in allosteric potency relative to SERT WT ([2]; A486E-K490A, [^3H]IMI dissociation): 77
[^3H]IMI dissociation relative to control (source data Fig 4B) ([2]; A486E-K490A, log conc -4.955): 0.2089 and 0.1837 and 0.2062
[^3H]IMI dissociation relative to control (source data Fig 4B) ([2]; A486E-K490A, log conc -5.432): 0.4714 and 0.3471 and 0.3282
[^3H]IMI dissociation relative to control (source data Fig 4B) ([2]; A486E-K490A, log conc -5.91): 0.664 and 0.6181 and 0.6285
[^3H]IMI dissociation relative to control (source data Fig 4B) ([2]; A486E-K490A, log conc -6.386): 0.93 and 0.8402 and 0.7554
[^3H]IMI dissociation relative to control (source data Fig 4B) ([2]; A486E-K490A, log conc -6.863): 1.01 and 0.967 and 0.9554
[^3H]IMI dissociation relative to control (source data Fig 4B) ([2]; A486E-K490A, log conc -7.34): 1 and 1.03 and 0.8514
[^3H]IMI dissociation relative to control (source data Fig 4B) ([2]; A486E-K490A, log conc -7.817): 1.04 and 0.999 and 0.8949
IC50 ([2]; SERT A486E-K490A, read-out: Lu AF60097 allosteric potency ([^3H]IMI dissociation IC50)): 2400 nM
ΔAP (mut/WT), change in allosteric potency relative to SERT WT ([3]; F556R, [^3H]IMI dissociation): >300
IC50 ([3]; SERT F556R (TM11), read-out: Lu AF60097 allosteric potency ([^3H]IMI dissociation IC50)): ≥ 10000 nM
ΔAP (mut/WT), change in allosteric potency relative to SERT WT ([4]; L406E, [^3H]IMI dissociation): 21
[^3H]IMI dissociation relative to control (source data Fig 4B) ([4]; L406E, log conc -5.91): 0.3505 and 0.3638 and 0.3072
[^3H]IMI dissociation relative to control (source data Fig 4B) ([4]; L406E, log conc -6.386): 0.6157 and 0.6402 and 0.5827
[^3H]IMI dissociation relative to control (source data Fig 4B) ([4]; L406E, log conc -6.863): 0.8533 and 0.8586 and 0.8107
[^3H]IMI dissociation relative to control (source data Fig 4B) ([4]; L406E, log conc -7.34): 0.9622 and 0.9861 and 1.0073
[^3H]IMI dissociation relative to control (source data Fig 4B) ([4]; L406E, log conc -7.817): 1.016 and 1.0012 and 1.0446
IC50 ([4]; SERT L406E (EL4), read-out: Lu AF60097 allosteric potency ([^3H]IMI dissociation IC50)): 650 nM
ΔAP (mut/WT), change in allosteric potency relative to SERT WT ([5]; R104K, [^3H]IMI dissociation): 19
[^3H]IMI dissociation relative to control (source data Fig 4B) ([5]; R104K, log conc -5.91): 0.3316 and 0.2892 and 0.4871 and 0.3865
[^3H]IMI dissociation relative to control (source data Fig 4B) ([5]; R104K, log conc -6.386): 0.5872 and 0.4706 and 0.6618 and 0.5459
[^3H]IMI dissociation relative to control (source data Fig 4B) ([5]; R104K, log conc -6.863): 0.8956 and 0.6502 and 0.7387 and 0.7045
[^3H]IMI dissociation relative to control (source data Fig 4B) ([5]; R104K, log conc -7.34): 1.0439 and 0.7759 and 0.8174 and 0.7536
[^3H]IMI dissociation relative to control (source data Fig 4B) ([5]; R104K, log conc -7.817): 0.9753 and 0.7981 and 0.836 and 0.9683
IC50 ([5]; SERT R104K (TM1), read-out: Lu AF60097 allosteric potency ([^3H]IMI dissociation IC50)): 630 nM
SMILES: NC(=O)c1ccc2c(c1)CO[C@@]2(CCCN1CCC(c2ccc3ccc(=O)[nH]c3c2)CC1)c1ccc(F)cc1 [Lu AF60097, (S)-1-(4-fluorophenyl)-1-(3-(4-(2-oxo-1,2-dihydroquinolin-7-yl)piperidin-1-yl)propyl)-1,3-dihydroisobenzofuran-5-carboxamide]
Lu AF60097 allosteric potency ([^3H]IMI dissociation IC50) ([3]; SERT F556R (TM11)): complete ablation of the allosteric potency
